Data taken from PubChem BioAssay (NCI).
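Each compound was tested at five concentrations against cells in 96-well plates for 48 hours. GI50: concentration for 50% inhibition of growth. Definition used: TGI = concentration required for complete inhibition of growth.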

How the values were obtained:
Test in all cases: growth of human tumour cells (NCI), 48 h
HOP-92 NSCLC = tested on: HOP-92 NSCLC
MDA-MB-468 breast = tested on: MDA-MB-468 breast
SNB-75 CNS = tested on: SNB-75 CNS
OVCAR-4 ovarian = tested on: OVCAR-4 ovarian
HL-60(TB) leukemia = tested on: HL-60(TB) leukemia
MCF7 breast = tested on: MCF7 breast
SN12C renal = tested on: SN12C renal
NCI-H522 lung = tested on: NCI-H522 lung
LOX IMVI melanoma = tested on: LOX IMVI melanoma
HS 578T breast = tested on: HS 578T breast
MDA-MB-231 breast = tested on: MDA-MB-231 breast
SK-MEL-5 melanoma = tested on: SK-MEL-5 melanoma
BT-549 breast = tested on: BT-549 breast
IGROV1 ovarian = tested on: IGROV1 ovarian
T-47D breast = tested on: T-47D breast
SR leukemia = tested on: SR leukemia
PC-3 prostate = tested on: PC-3 prostate
HCT-15 colon = tested on: HCT-15 colon
MOLT-4 leukemia = tested on: MOLT-4 leukemia
SK-MEL-28 melanoma = tested on: SK-MEL-28 melanoma
SK-OV-3 ovarian = tested on: SK-OV-3 ovarian
COLO 205 colon = tested on: COLO 205 colon
ACHN renal = tested on: ACHN renal
NCI-H226 lung = tested on: NCI-H226 lung
HCC-2998 colon = tested on: HCC-2998 colon
U251 CNS = tested on: U251 CNS
HOP-62 NSCLC = tested on: HOP-62 NSCLC
MALME-3M melanoma = tested on: MALME-3M melanoma
SW-620 colon = tested on: SW-620 colon
SF-295 CNS = tested on: SF-295 CNS
EKVX NSCLC = tested on: EKVX NSCLC
SK-MEL-2 melanoma = tested on: SK-MEL-2 melanoma
UACC-62 melanoma = tested on: UACC-62 melanoma
NCI-H23 lung = tested on: NCI-H23 lung
CCRF-CEM leukemia = tested on: CCRF-CEM leukemia
OVCAR-5 ovarian = tested on: OVCAR-5 ovarian
NCI/ADR-RES ovarian = tested on: NCI/ADR-RES ovarian
MDA-MB-435 = tested on: MDA-MB-435
OVCAR-8 ovarian = tested on: OVCAR-8 ovarian
SNB-19 CNS = tested on: SNB-19 CNS
KM12 colon = tested on: KM12 colon
786-0 renal = tested on: 786-0 renal
M14 melanoma = tested on: M14 melanoma
OVCAR-3 ovarian = tested on: OVCAR-3 ovarian
HT29 colon = tested on: HT29 colon
A498 renal = tested on: A498 renal
SF-268 CNS = tested on: SF-268 CNS
RPMI-8226 leukemia = tested on: RPMI-8226 leukemia
TK-10 renal = tested on: TK-10 renal
SF-539 CNS = tested on: SF-539 CNS
K-562 leukemia = tested on: K-562 leukemia
A549 NSCLC = tested on: A549 NSCLC
UO-31 renal = tested on: UO-31 renal
DU-145 prostate = tested on: DU-145 prostate
CAKI-1 renal = tested on: CAKI-1 renal
NCI-H460 lung = tested on: NCI-H460 lung
HCT-116 colon = tested on: HCT-116 colon
RXF 393 renal = tested on: RXF 393 renal

SMILES: COc1ccc2cc([C@H](C)C(=O)NCc3ccccc3)ccc2c1
- GI50 (HOP-92 NSCLC): 7.87 µM
- TGI (HOP-92 NSCLC): 79.2 µM
- GI50 (MDA-MB-468 breast): 1980 nM
- TGI (MDA-MB-468 breast): 5.52 µM
- GI50 (SNB-75 CNS): 1680 nM
- TGI (SNB-75 CNS): 7.16 µM
- GI50 (OVCAR-4 ovarian): 49.3 µM
- TGI (OVCAR-4 ovarian): > 100 µM
- GI50 (HL-60(TB) leukemia): 2250 nM
- TGI (HL-60(TB) leukemia): 7.52 µM
- GI50 (MCF7 breast): 3.39 µM
- TGI (MCF7 breast): > 100 µM
- GI50 (SN12C renal): 4.26 µM
- TGI (SN12C renal): > 100 µM
- GI50 (NCI-H522 lung): 2980 nM
- TGI (NCI-H522 lung): > 100 µM
- GI50 (LOX IMVI melanoma): 5.03 µM
- TGI (LOX IMVI melanoma): > 100 µM
- GI50 (HS 578T breast): 3.11 µM
- TGI (HS 578T breast): 51.7 µM
- GI50 (MDA-MB-231 breast): 4.72 µM
- TGI (MDA-MB-231 breast): > 100 µM
- GI50 (SK-MEL-5 melanoma): 3.17 µM
- TGI (SK-MEL-5 melanoma): > 100 µM
- GI50 (BT-549 breast): 5.47 µM
- TGI (BT-549 breast): > 100 µM
- GI50 (IGROV1 ovarian): 5.5 µM
- TGI (IGROV1 ovarian): > 100 µM
- GI50 (T-47D breast): 4.75 µM
- TGI (T-47D breast): > 100 µM
- GI50 (SR leukemia): 1780 nM
- TGI (SR leukemia): > 100 µM
- GI50 (PC-3 prostate): 4.44 µM
- TGI (PC-3 prostate): > 100 µM
- GI50 (HCT-15 colon): 3.28 µM
- TGI (HCT-15 colon): > 100 µM
- GI50 (MOLT-4 leukemia): 4.19 µM
- TGI (MOLT-4 leukemia): > 100 µM
- GI50 (SK-MEL-28 melanoma): 7.12 µM
- TGI (SK-MEL-28 melanoma): > 100 µM
- GI50 (SK-OV-3 ovarian): 3.76 µM
- TGI (SK-OV-3 ovarian): 76.7 µM
- GI50 (COLO 205 colon): 3.03 µM
- TGI (COLO 205 colon): 14 µM
- GI50 (ACHN renal): 5.93 µM
- TGI (ACHN renal): > 100 µM
- GI50 (NCI-H226 lung): 7.83 µM
- TGI (NCI-H226 lung): > 100 µM
- GI50 (HCC-2998 colon): 6.89 µM
- TGI (HCC-2998 colon): > 100 µM
- GI50 (U251 CNS): 3.95 µM
- TGI (U251 CNS): 73.9 µM
- GI50 (HOP-62 NSCLC): 4.02 µM
- TGI (HOP-62 NSCLC): 76 µM
- GI50 (MALME-3M melanoma): 3.88 µM
- TGI (MALME-3M melanoma): > 100 µM
- GI50 (SW-620 colon): 3.43 µM
- TGI (SW-620 colon): > 100 µM
- GI50 (SF-295 CNS): 3.23 µM
- TGI (SF-295 CNS): 16 µM
- GI50 (EKVX NSCLC): 3.82 µM
- TGI (EKVX NSCLC): > 100 µM
- GI50 (SK-MEL-2 melanoma): 3.93 µM
- TGI (SK-MEL-2 melanoma): 34.7 µM
- GI50 (UACC-62 melanoma): 3.75 µM
- TGI (UACC-62 melanoma): > 100 µM
- GI50 (NCI-H23 lung): 5.48 µM
- TGI (NCI-H23 lung): > 100 µM
- GI50 (CCRF-CEM leukemia): 3.9 µM
- TGI (CCRF-CEM leukemia): > 100 µM
- GI50 (OVCAR-5 ovarian): 7.84 µM
- TGI (OVCAR-5 ovarian): > 100 µM
- GI50 (NCI/ADR-RES ovarian): 3.11 µM
- TGI (NCI/ADR-RES ovarian): 12.2 µM
- GI50 (MDA-MB-435): 1710 nM
- TGI (MDA-MB-435): 7.53 µM
- GI50 (OVCAR-8 ovarian): 5.29 µM
- TGI (OVCAR-8 ovarian): > 100 µM
- GI50 (SNB-19 CNS): 5.46 µM
- TGI (SNB-19 CNS): 40.2 µM
- GI50 (KM12 colon): 4.56 µM
- TGI (KM12 colon): > 100 µM
- GI50 (786-0 renal): 7.94 µM
- TGI (786-0 renal): > 100 µM
- GI50 (M14 melanoma): 3.61 µM
- TGI (M14 melanoma): > 100 µM
- GI50 (OVCAR-3 ovarian): 3.21 µM
- TGI (OVCAR-3 ovarian): 22.9 µM
- GI50 (HT29 colon): 3.08 µM
- TGI (HT29 colon): > 100 µM
- GI50 (A498 renal): > 100 µM
- TGI (A498 renal): > 100 µM
- GI50 (SF-268 CNS): 6.44 µM
- TGI (SF-268 CNS): > 100 µM
- GI50 (RPMI-8226 leukemia): 5.09 µM
- TGI (RPMI-8226 leukemia): > 100 µM
- GI50 (TK-10 renal): 13 µM
- TGI (TK-10 renal): > 100 µM
- GI50 (SF-539 CNS): 3.08 µM
- TGI (SF-539 CNS): 11.7 µM
- GI50 (K-562 leukemia): 2190 nM
- TGI (K-562 leukemia): > 100 µM
- GI50 (A549 NSCLC): 6.86 µM
- TGI (A549 NSCLC): > 100 µM
- GI50 (UO-31 renal): 4.35 µM
- TGI (UO-31 renal): 73.4 µM
- GI50 (DU-145 prostate): 5.52 µM
- TGI (DU-145 prostate): > 100 µM
- GI50 (CAKI-1 renal): 4.78 µM
- TGI (CAKI-1 renal): > 100 µM
- GI50 (NCI-H460 lung): 3.83 µM
- TGI (NCI-H460 lung): > 100 µM
- GI50 (HCT-116 colon): 5.21 µM
- TGI (HCT-116 colon): > 100 µM
- GI50 (RXF 393 renal): 2570 nM
- TGI (RXF 393 renal): 9.23 µM

SMILES: O=C1/C(=C/c2ccc(Br)cc2)COc2ccc(O)c(O)c21
- GI50 (MDA-MB-468 breast): 1370 nM
- TGI (MDA-MB-468 breast): 3.2 µM

SMILES: CCN(CC)c1ccc2c(c1)OC(N)=C(C#N)C2c1cc(OC)c2c(c1)OCO2 (configuration not stated)
- GI50 (MDA-MB-468 breast): 32.8 nM
- TGI (MDA-MB-468 breast): 2.97 µM

SMILES: CC(C)=CC/C=C(/C)[C@H]1CC[C@]2(C)[C@@H]1CC[C@@H]1[C@@]3(C)CCCNC(C)(C)[C@@H]3CC[C@]12C
- GI50 (MDA-MB-468 breast): 1710 nM
- TGI (MDA-MB-468 breast): 3.25 µM
